This note sets out measurements from patent US20250243180A1, “TARGETED PROTEIN DEGRADATION” (Monte Rosa Therapeutics AG, priority 2023, published 2025).

Assay [1] has as its target CRBN-DDB1 (Homo sapiens (Human), UniProt Q96SW2). As to the kind of experiment: Compound binding to CRBN by HTRF assay. In outline:
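HTRF displacement of Cy5-thalidomide probe (100 nM) from His-tagged CRBN-DDB1 (2.5 nM) with anti-His terbium cryptate, in HEPES/NaCl/TCEP/EDTA/Tween20 buffer; 11-point 1:3 dilution series, 30 min at ambient temperature. Signal (665/620 nm) normalized to lenalidomide and DMSO controls; EC50 fitted, Ki by Cheng-Prusoff from geometric mean EC50.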

For assay [2], the target named is NEK7 (Homo sapiens (Human), UniProt Q8TDX7+Q96SW2). As to the kind of experiment: NEK7 NanoBiT degradation assay in Cal51 NEK7 NanoBiT cell line. Format: cell-based. As to conditions: Cal51 NEK7 NanoBiT cells, 24 hours; for Dmax: CAL-51. In outline:
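Cal51 cells with CRISPR knock-in HiBiT-tagged endogenous NEK7 plus stable LgBiT, in live-cell Endurazine medium, seeded 16 h before dosing. Compounds at final 1 μM to 0.05 nM for 24 h at 37 °C, then luminescence read. Response normalized to plate controls and fitted with a 4-parameter logistic giving EC50.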

Assay [3] concerns Caspase-1 activity. As to the kind of experiment: Caspase-1 activity in human monocyte-derived macrophages, LPS/nigericin stimulation. Format: cell-based. The conditions noted are these: Macrophage, 24 h pre-treatment, LPS 3 h then 10 μM nigericin 1 h, read-out: Caspase-1 IC50 (NIG). The method, then: (§1) Human monocytes were enriched and isolated from a buffy coat of healthy donor whole blood with a RosetteSep™ Human Monocyte Enrichment Cocktail (Cat.No. 15068, StemCell) and Ficoll-Plaque PLUS (Cat.No. H8889, Sigma). Monocytes were differentiated into macrophages by treatment with 100 ng/mL M-CSF for 6 days at 37° C., 5% CO2. Differentiated macrophages were seeded overnight (50,000 cells/well) in 100 µL of medium in a 96-well, white-bottom plate at 37° C., 5% CO2. Cells were treated with a concentration range of MGD for 24 hours prior to stimulation with nigericin. Macrophages were primed with […] LPS for 3 h followed by 1 h stimulation with 10 μM nigericin. Media of stimulated macrophages were collected and assayed for caspase 1 activity directly (Promega G9951), according to manufacturer's instructions. For IL-1β release assay, media of stimulated macrophages were collected and stored at −20° C., then thawed at 4° C. before assaying for IL-1β activity (Promega W6011), according to manufacturer's instructions.

Assay [4] relates to IL-1β release. As to the kind of experiment: IL-1β release in human monocyte-derived macrophages, LPS/nigericin stimulation. The format is cell-based. The conditions noted are these: Macrophage, 24 h pre-treatment, LPS 3 h then 10 μM nigericin 1 h, read-out: IL-1b IC50 (NIG). As for the experimental part:
as §1

Where [5] appears, read: NEK7 degradation, read-out: NanoBiT Dmax.
[6] abbreviates: NEK7 degradation, read-out: NanoBiT DC50.

Where two headings read alike, the source gives them in different places.

NEK7, sequence (Q8TDX7 whole entry): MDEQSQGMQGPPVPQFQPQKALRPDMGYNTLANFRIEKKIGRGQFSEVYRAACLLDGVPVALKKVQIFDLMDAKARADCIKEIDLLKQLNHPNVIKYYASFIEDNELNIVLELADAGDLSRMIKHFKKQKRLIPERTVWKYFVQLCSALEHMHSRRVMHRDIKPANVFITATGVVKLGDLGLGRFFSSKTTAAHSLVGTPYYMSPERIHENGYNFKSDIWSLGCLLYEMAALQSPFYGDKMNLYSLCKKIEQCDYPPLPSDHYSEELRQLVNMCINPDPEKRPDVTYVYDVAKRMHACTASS
NEK7, sequence (Q96SW2 whole entry): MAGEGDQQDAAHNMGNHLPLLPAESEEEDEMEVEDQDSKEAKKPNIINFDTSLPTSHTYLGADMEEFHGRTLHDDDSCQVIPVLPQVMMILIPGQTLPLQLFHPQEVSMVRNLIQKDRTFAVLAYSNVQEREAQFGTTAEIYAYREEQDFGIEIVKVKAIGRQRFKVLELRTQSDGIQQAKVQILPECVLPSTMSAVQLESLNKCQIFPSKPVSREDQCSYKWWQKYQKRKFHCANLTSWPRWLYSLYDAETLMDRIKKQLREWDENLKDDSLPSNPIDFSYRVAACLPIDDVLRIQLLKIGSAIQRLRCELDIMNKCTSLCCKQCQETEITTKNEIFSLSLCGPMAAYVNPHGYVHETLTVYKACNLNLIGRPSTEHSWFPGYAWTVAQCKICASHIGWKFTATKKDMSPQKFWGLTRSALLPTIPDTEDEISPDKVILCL
NEK7, sequence (Q16531 2-1140 partner): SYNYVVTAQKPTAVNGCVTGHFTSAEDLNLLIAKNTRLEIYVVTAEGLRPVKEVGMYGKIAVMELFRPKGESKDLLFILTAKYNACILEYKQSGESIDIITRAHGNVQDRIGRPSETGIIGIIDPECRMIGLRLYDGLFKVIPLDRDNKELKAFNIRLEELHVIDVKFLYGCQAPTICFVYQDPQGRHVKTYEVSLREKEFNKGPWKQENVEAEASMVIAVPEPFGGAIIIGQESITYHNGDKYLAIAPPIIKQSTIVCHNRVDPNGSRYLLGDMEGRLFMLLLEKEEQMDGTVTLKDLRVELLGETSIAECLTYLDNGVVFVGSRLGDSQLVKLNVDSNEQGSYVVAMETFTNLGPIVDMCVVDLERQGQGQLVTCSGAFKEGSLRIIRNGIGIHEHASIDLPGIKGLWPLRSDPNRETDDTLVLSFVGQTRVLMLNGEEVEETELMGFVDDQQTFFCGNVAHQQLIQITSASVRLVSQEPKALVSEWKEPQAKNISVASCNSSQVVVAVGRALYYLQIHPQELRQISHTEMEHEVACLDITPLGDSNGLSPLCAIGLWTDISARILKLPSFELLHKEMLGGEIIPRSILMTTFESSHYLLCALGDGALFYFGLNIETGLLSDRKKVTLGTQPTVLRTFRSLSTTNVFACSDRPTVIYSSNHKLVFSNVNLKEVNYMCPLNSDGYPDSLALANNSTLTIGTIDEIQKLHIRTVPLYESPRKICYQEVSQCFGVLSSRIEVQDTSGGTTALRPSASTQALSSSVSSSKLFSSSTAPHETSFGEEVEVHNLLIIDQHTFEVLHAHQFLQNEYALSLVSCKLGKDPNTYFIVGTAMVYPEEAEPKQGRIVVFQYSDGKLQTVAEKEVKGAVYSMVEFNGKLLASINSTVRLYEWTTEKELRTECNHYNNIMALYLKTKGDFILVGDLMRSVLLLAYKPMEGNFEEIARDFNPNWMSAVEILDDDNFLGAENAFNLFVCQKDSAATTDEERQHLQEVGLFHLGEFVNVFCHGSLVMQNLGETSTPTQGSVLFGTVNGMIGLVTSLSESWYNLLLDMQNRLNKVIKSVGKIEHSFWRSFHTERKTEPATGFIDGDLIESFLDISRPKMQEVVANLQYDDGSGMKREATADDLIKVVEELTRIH
CRBN-DDB1, sequence (Q96SW2 whole entry): as the sequence (Q96SW2 whole entry) above
CRBN-DDB1, sequence (Q16531 whole entry partner): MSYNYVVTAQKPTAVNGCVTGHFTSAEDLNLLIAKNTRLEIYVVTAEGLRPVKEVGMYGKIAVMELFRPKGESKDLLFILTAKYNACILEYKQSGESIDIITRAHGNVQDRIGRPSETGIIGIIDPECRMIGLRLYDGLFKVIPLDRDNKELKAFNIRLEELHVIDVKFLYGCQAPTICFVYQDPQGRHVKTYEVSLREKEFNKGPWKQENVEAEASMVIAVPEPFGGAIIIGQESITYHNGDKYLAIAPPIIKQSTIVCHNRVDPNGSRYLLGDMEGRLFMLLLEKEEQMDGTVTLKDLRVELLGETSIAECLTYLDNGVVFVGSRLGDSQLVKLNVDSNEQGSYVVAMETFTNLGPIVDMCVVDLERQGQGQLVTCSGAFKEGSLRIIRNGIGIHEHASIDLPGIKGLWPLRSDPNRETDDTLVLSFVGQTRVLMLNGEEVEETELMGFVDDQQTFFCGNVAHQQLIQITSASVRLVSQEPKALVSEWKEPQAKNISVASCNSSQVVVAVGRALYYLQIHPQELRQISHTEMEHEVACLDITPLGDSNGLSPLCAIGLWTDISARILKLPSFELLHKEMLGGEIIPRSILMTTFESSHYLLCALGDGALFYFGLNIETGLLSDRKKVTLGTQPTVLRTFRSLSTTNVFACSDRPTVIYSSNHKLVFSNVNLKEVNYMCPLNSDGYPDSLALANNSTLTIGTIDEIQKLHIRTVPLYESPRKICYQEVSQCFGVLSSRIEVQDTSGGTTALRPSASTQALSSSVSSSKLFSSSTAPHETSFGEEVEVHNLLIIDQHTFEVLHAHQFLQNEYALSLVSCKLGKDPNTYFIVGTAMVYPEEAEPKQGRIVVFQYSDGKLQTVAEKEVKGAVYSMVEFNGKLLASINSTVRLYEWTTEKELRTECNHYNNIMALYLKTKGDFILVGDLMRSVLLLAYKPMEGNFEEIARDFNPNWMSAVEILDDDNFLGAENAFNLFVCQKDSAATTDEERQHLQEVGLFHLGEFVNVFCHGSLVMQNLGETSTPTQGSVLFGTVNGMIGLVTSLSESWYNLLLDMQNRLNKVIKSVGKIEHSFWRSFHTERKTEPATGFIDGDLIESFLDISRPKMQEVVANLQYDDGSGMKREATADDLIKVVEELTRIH

Usually EC50 stands for the concentration giving half of the maximal effect. As a reminder, the Dmax is the largest share of the target that was removed. The DC50 is the concentration at which degradation of the target reaches its halfway point. By IC50 is commonly meant the concentration at which inhibition is half-maximal. For `CC(C)(C(=O)NCc1cc(Cl)c(C2CCC(=O)NC2=O)c(Cl)c1)c1ncc(C#N)cn1` (stereo not shown) [Compound 16, 2-(5-cyanopyrimidin-2-yl)-N-(3,5-dichloro-4-(2,6-dioxopiperidin-3-yl)benzyl)-2-methyl-propanamide], the EC50 in assay [1] is 120 nM; in assay [1] (HTRF class, Cereblon binding), 100 to 1000 nM. Moreover, the results for the Dmax in assay [2] (read-out: NEK7 NanoBiT Dmax) and in assay [2] (setting [5]) were 95% and > 75%, respectively. The half-maximal degradation concentration (DC50) in assay [2] (read-out: NEK7 NanoBiT DC50) is 4 nM; in assay [2] (setting [6]), ≤ 100 nM. Besides, the half-inhibitory concentration (IC50) in assay [3] stood at 0.32 nM; in assay [4], 0.56 nM.

Take `Cc1cnc(C(C)(C)C(=O)NCc2cc(Cl)c(C3CCC(=O)NC3=O)c(Cl)c2)nc1` (stereo not shown) [Compound 14, N-(3,5-dichloro-4-(2,6-dioxopiperidin-3-yl)benzyl)-2-methyl-2-(5-methylpyrimidin-2-yl)-propanamide]: the EC50 in assay [1] was 110 nM; in assay [1] (HTRF class, Cereblon binding), 100 to 1000 nM. Moreover, the figures for the Dmax in assay [2] (read-out: NEK7 NanoBiT Dmax) and in assay [2] (setting [5]) were 89% and > 75%, respectively. Also, the values for the 50% degradation concentration (DC50) in assay [2] (read-out: NEK7 NanoBiT DC50) and in assay [2] (setting [6]) were 9 nM and ≤ 100 nM, respectively. The IC50 in assay [3] is 1.85 nM; in assay [4] it was 1.95 nM.
